Data from patent US6906046B2 (Celltech R & D Inc., priority 2000, dated 2005).

Assays:
[1] = test system: A549 cells; assay: Inhibition of TNF-α induced apoptosis in A549 cells (crystal violet); assay type: cell-based; details: Homo sapiens; A549 cells, actinomycin-D + TNF-α at its EC50, 18 hours; percent inhibition at 20 μM or IC50 in μM; read-out: Apopt. Inh.
Procedure: The protocol used for determining inhibition of apoptosis in A549 cells was adopted from a system previously described (K. Last-Barney et al., J. of Immunology 141:527-530, 1988). Briefly, 10^5 cells in 200 μL 10% FBS/RPMI antibiotic containing culture medium were plated into 96 well round bottom culture plates and allowed to adhere for 6 hours at 37° C. in a 5% CO2 atmosphere. The media was removed and 100 μL of RPMI+1 μg/mL actinomycin-D was added to each well, followed by 90 μL of test compound solution in 1% DMSO. This was incubated for 1 hour 10 AL TNF-α was added at its EC50 (normally 1 ng/mL FAC) and the plates incubated for 18 hours. The media was aspirated from the plates and 100 μL of 0.5% crystal violet in 20% methanol was added. After 10 minutes the plates were rinsed with water to remove excess stain, air dried, and read on a Spectramax at a wavelength of 590 nm. The data obtained from the Spectramax was converted into percent inhibition data at a concentration of 20 μM or IC50 measured in μM.

[2] = test system: NFκB; assay: NFκB luciferase reporter assay in TNF-α stimulated A549 cells (E-selectin promoter); assay type: cell-based; details: Homo sapiens; A549 cells with NFκB luciferase reporter, TNF-α at its EC50, 5 hours; % inhibition or IC50 in μM; read-out: NFkB inh.
Procedure: A549 cells were stably transfected with an E-selectin promoter containing three NFκB binding sites driving luciferase expression. For the assay, 5×10^4 cells were incubated in 96 well round bottom plates overnight in 100 μL of 10% FBS/RPMI medium at 37° C. in a 5% CO2 atmosphere. The following morning the medium was removed and 90 μL of a 1% DMSO solution of test compound solution was added and the plates incubated for 1 hour. 10 μL of TNF-α was added at its EC50 (normally 6 ng/mL FAC) to each well and the plate incubated for 5 hours. 100 μL of luciferase buffer was added, and after 10 minutes luminescence was read on a Wallac Victor 1420 Multilabel Counter. The data obtained from the Wallac Victor was converted into % inhibition data or IC50 measured in μM.

[3] = biological target: T1, CXCR1 (Homo sapiens, UniProt P25024); assay: CXCR1 radioligand binding assay with 125I labeled IL-8; details: human recombinant CHO cells, percent inhibition or IC50, read-out: CXCR1 inh.
T1 construct: host or cells: CHO cells
T1 sequence (P25024 1-350): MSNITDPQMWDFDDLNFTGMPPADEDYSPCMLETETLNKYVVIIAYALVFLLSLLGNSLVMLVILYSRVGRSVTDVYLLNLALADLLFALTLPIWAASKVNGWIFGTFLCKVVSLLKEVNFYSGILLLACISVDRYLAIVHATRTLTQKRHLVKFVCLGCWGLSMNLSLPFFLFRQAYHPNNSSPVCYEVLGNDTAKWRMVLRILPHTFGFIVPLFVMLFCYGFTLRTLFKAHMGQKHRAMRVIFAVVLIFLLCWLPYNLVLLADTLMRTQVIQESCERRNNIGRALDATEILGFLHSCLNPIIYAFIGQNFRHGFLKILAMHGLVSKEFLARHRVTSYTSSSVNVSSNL
Text: (§1) This assay is a radioligand binding assay in human recombinant CHO cells with ^125I labeled IL-8 as the ligand. The assay procedure is described in Ahuja, S. K.; Murphy, P. M;.

[4] = biological target: T2, CXCR2 (Homo sapiens, UniProt P25025); assay: CXCR2 radioligand binding assay with 125I labeled IL-8; details: human recombinant CHO cells, percent inhibition or IC50, read-out: CXCR2 2 inh.
T2 construct: host or cells: CHO cells
T2 sequence (P25025 1-360): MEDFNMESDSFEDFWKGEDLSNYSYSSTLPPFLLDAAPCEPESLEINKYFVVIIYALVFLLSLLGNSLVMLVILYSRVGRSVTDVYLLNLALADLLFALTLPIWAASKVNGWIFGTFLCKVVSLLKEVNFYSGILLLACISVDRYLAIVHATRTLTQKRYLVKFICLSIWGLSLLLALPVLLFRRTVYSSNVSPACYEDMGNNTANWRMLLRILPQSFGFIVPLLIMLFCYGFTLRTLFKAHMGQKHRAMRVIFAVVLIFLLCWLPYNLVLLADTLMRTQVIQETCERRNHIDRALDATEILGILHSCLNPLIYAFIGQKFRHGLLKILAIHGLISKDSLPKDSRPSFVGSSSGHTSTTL
Text: as §1

- IC50 [1]: < 10 µM
- IC50 [2]: 10 to 50 µM
- IC50 [3]: < 10 µM
- IC50 [4]: < 10 µM
SMILES: CCCOC(=O)C1C(C(=O)OCC[Si](C)(C)C)C2C/C(=N\Nc3ccccc3)[C@H]1c1cc(O)ccc12 (stereo partly shown) [Example 111]
